# Molecular target: T1, SpIH (Strongylocentrotus purpuratus, UniProt O76977)
# T1 sequence (O76977 1-767): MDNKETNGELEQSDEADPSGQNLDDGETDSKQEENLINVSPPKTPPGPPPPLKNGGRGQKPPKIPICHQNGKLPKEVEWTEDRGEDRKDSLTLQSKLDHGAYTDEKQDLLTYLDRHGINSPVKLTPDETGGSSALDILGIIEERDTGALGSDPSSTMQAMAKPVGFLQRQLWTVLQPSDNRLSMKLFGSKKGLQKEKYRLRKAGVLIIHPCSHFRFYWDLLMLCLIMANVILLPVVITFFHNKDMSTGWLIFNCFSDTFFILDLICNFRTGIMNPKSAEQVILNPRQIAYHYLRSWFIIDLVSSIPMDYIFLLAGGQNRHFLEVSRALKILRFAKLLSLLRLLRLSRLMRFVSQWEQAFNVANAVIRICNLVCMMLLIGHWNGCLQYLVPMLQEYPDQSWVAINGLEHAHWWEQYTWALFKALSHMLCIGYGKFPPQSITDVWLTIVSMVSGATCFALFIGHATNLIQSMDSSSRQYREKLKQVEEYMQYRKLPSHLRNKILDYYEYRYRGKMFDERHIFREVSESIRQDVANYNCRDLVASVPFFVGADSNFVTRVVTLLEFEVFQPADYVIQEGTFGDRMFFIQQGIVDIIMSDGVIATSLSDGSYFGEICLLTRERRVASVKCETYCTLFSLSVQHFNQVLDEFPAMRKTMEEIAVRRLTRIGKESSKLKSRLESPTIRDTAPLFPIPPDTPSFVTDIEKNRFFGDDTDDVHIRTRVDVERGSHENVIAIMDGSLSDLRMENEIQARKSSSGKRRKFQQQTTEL
# Assay type: cell-based
compound,measurement,value
CCCCCCCC(=O)OC[C@H](COP(=O)(O)O[C@H]1[C@H](O)[C@@H](O)[C@H](OP(=O)(O)O)[C@@H](O)[C@H]1O)OC(=O)CCCCCCC [diC8-PIP],IC50,13.6 µM

# — PMC3083228 (The Journal of Biological Chemistry, 2011)
